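The compound was tested at five concentrations on cells cultured in 96-well plates, with a 48-hour exposure period. The concentration for 50% growth inhibition is given as GI50. The concentration for full growth arrest is given as TGI.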
Tests used:
Experiment in all cases: NCI-60 cell line screen, 48 h
MDA-MB-231 breast = test system: MDA-MB-231 breast
RXF 393 renal = test system: RXF 393 renal
NCI/ADR-RES ovarian = test system: NCI/ADR-RES ovarian
EKVX NSCLC = test system: EKVX NSCLC
DU-145 prostate = test system: DU-145 prostate
M14 melanoma = test system: M14 melanoma
NCI-H522 lung = test system: NCI-H522 lung
SF-268 CNS = test system: SF-268 CNS
786-0 renal = test system: 786-0 renal
SF-539 CNS = test system: SF-539 CNS

Row | SMILES | TGI (MDA-MB-231 breast) [µM] | TGI (RXF 393 renal) [µM] | TGI (NCI/ADR-RES ovarian) [µM] | TGI (EKVX NSCLC) [µM] | TGI (DU-145 prostate) [µM] | TGI (M14 melanoma) [µM] | TGI (NCI-H522 lung) [µM] | TGI (SF-268 CNS) [µM] | TGI (786-0 renal) [µM] | TGI (SF-539 CNS) [µM] | GI50 (MDA-MB-231 breast) [µM] | GI50 (RXF 393 renal) [µM] | GI50 (NCI/ADR-RES ovarian) [µM] | GI50 (DU-145 prostate) [µM] | GI50 (M14 melanoma) [µM] | GI50 (NCI-H522 lung) [µM] | GI50 (SF-539 CNS) [µM] | GI50 (SF-268 CNS) [µM] | GI50 (786-0 renal) [µM] | GI50 (EKVX NSCLC) [µM]
1 | CC1NCCC(CC(=O)O)C1CC(=O)O (stereo unspecified) | > 100 | > 100 | > 100 | > 100 | > 100 | > 100 | > 100 | > 100 | > 100 |  |  |  |  |  |  |  |  |  |  | 
2 | O=Cc1cc2sc(C=O)cc2s1 |  | > 100 |  | > 100 |  | > 100 | > 100 | > 100 | > 100 | > 100 |  |  |  |  |  |  |  |  |  | 
3 | O=C1C2=C(c3ccccc31)C(c1ccc([N+](=O)[O-])cc1)NC(=S)N2 (stereo unspecified) |  |  |  | > 100 |  | > 100 | > 100 | > 100 | > 100 | > 100 |  |  |  |  |  |  |  |  |  | 
4 | COc1ccc(N2CCN(c3nc(-c4ccccn4)nc4sc5c(c34)CCCCCC5)CC2)cc1 | > 100 | > 100 | > 100 |  | > 100 | > 100 | > 100 | > 100 | > 100 | > 100 | 49.6 | > 100 | 4.77 | 27.9 | 5.4 | 18.6 | 66.9 | > 100 | 8.45 | 
5 | O=C(O)[C@@H](Cc1ccccc1)NS(=O)(=O)c1ccc(-c2ccccc2)cc1 | > 100 |  | > 100 | > 100 | > 100 | > 100 | > 100 | > 100 | > 100 | > 100 | > 100 |  | > 100 | > 100 | > 100 | > 100 | > 100 | > 100 | > 100 | > 100
6 | CCCCCCCC(=O)[O-].N.N.N.N.N.[Co+3].[O-][Cl+3]([O-])([O-])[O-] |  |  |  | > 100 |  | > 100 | > 100 | > 100 | > 100 | > 100 |  |  |  |  | > 100 | > 100 | > 100 | > 100 | > 100 | > 100
7 | COC(=O)C1(N2CCOCC2)CCC([C@@H](c2ccccc2)C(C)[N+](=O)[O-])C1 (stereo partly specified) | > 100 |  | > 100 | > 100 | 59.6 | > 100 |  | > 100 | > 100 | > 100 |  |  |  |  |  |  |  |  |  | 
8 | Oc1ccc(Cl)cc1N=Nc1c(O)ccc2ccccc12 | > 100 | > 100 | > 100 | > 100 |  | > 100 | > 100 | > 100 | > 100 |  |  |  |  |  |  |  |  |  |  | 
9 | CC1=NN(c2ccccc2)C(=O)C1N=Nc1ccc(Br)cc1C (stereo unspecified) |  | > 100 |  | > 100 |  | > 100 |  | > 100 | > 100 | > 100 |  |  |  |  |  |  |  |  |  | 
10 | OCC1OC(NO)C(O)C(O)C1O (stereo unspecified) |  | > 100 |  |  |  | > 100 | > 100 | > 100 | > 100 | > 100 |  |  |  |  |  |  |  |  |  | 
11 | C/C(COc1ccccc1)=N\NC(N)=S |  | > 100 |  | > 100 |  | > 100 |  | > 100 | > 100 | > 100 |  |  |  |  |  |  |  |  |  | 
12 | O=S1c2ccccc2N=C(c2cccs2)CC1c1ccccc1O (stereo unspecified) |  | > 100 |  | > 100 |  | > 100 | > 100 | > 100 | > 100 | > 100 |  |  |  |  |  |  |  |  |  | 
13 | O=S(=O)(O)c1ccc([Se][Se]c2ccc(S(=O)(=O)O)cc2)cc1 |  | > 100 |  | > 100 |  | > 100 | > 100 | > 100 | > 100 | > 100 |  |  |  |  |  |  |  |  |  | 
14 | COc1cccc(/C=C/C(=O)c2cc3c(N)c(C(=O)Nc4ccccc4)sc3nc2C)c1 | 11.7 | 1.71 |  | 13.1 | 4.37 | 3.52 | 3.08 | 5.82 | 1.72 | 1.84 | 1.79 | 0.837 |  | 1.39 | 1.27 | 1.06 | 0.957 | 1.47 | 0.802 | 5.8
15 | O=C(C#Cc1ccccc1)N1CCCCC1 | > 100 |  |  | > 100 | > 100 | > 100 | > 100 | > 100 | > 100 | > 100 |  |  |  |  |  |  |  |  |  | 
16 | O=C(COc1ccc(Cl)cc1Cl)NNc1ccc([N+](=O)[O-])cc1 | > 100 | 39.9 | > 100 |  | > 100 | > 100 |  | > 100 | 61.2 | > 100 | 30.8 | 17 | 84 | 53.3 | > 100 |  | 99.8 | 36.9 | 25.6 | 
17 | Oc1ccccc1-c1cnnc(-c2ccccc2O)c1 |  | 56.5 |  | 92.9 |  | 43.3 | 41.3 | > 100 | 36.6 | 65.1 |  |  |  |  |  |  |  |  |  | 
18 | CCCCCCCCCCCCCC(=O)OCC1OC(=O)C(O)C1O (stereo unspecified) |  |  |  | > 100 |  | > 100 | > 100 | > 100 | > 100 | > 100 |  |  |  |  |  |  |  |  |  | 
19 | CCC(/C(=N/NC(=O)C[N+](C)(C)C)c1ccccc1)C1OC(=O)c2ccccc21 (stereo unspecified) |  | > 100 |  |  |  | > 100 | > 100 | > 100 | > 100 | > 100 |  |  |  |  |  |  |  |  |  | 
20 | O=S1(=O)CC#CC[C@@H](CO)[C@@H](CO)CC#CC1 |  | > 100 |  | > 100 |  | > 100 | 32.6 |  | > 100 | > 100 |  |  |  |  |  |  |  |  |  | 
21 | COc1ccc2c(c1)C(=O)CC(C(N)=O)C2 (stereo unspecified) | > 100 | > 100 | > 100 | > 100 | > 100 | > 100 | > 100 | > 100 | > 100 |  |  |  |  |  |  |  |  |  |  | 
22 | O=C(NNC(=O)/C(=C/c1cccc([N+](=O)[O-])c1)NC(=O)c1ccccc1)Nc1ccc(Cl)cc1 |  | 25.6 |  | 44 |  | 26.9 | 25.7 | 29.6 | 29.1 | 35.1 |  |  |  |  |  |  |  |  |  | 
